{
  "source": "patent US20220162215A1",
  "about": "“COMPOSITIONS AND METHODS OF USING THE SAME FOR TREATMENT OF NEURODEGENERATIVE AND MITOCHONDRIAL DISEASE” (MITOKININ, INC., priority 2019, published 2022)",
  "key": {"PINK1 [1]": {"target": "T1, PINK1 (Homo sapiens, UniProt Q9BXM7)", "T1 construct": "for each cell type tested (HeLa-MKYP WT or PINK1^KO); endogenous in cells; host or cells: HeLa-MKYP (WT) / HeLa cells", "T1 sequence (Q9BXM7 78-581)": "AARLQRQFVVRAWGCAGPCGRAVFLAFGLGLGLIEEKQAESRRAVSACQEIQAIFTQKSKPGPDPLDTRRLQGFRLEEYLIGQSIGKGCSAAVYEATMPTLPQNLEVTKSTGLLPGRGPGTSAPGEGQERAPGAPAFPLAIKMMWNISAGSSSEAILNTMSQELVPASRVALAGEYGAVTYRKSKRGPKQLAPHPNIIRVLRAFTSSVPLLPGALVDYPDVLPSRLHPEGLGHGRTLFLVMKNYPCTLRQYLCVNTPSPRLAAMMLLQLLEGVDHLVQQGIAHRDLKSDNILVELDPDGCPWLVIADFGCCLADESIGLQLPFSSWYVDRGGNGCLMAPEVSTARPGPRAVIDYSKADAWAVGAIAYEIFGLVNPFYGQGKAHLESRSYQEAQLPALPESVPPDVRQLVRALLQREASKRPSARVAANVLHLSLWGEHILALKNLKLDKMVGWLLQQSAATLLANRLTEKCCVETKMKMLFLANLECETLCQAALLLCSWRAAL", "assay": "Human Phospho-Ubiquitin (pS65) ub2 assay (western blot, in vitro PINK1 kinase assay)", "type": "cell-based", "details": "in the presence of 0.5 μM FO; FIG. 14", "experimental": "Briefly, HeLa MKYP cells were plated at 1,300,000 cells/plate in 10 cm plates in 10 mL of medium containing compound at various concentrations. Following 16 hrs of incubation, cells were treated with 0.5 uM FCCP/oligomycin for 2 hours, then harvested. Mitochondria were then isolated according to published protocols (Ordureau et al, 2014; https://doi.org/10.1016/j.molcel.2014.09.007). Equal amounts of samples were loaded on 26 well gradient gels, and a western blot analysis was performed using commercially available antibodies for various markers, including […]."}, "PINK1 [2]": {"target": "T1, PINK1", "assay": "pS65 Ubiquitin ELISA assay (HeLa-MKYP WT or PINK1 KO)", "type": "cell-based", "details": "PINK1wt vs PINK1ko cells, FIG. 17A", "experimental": "HeLa-MKYP cells were plated at 10,000 cells/well in 96-well plates along with compounds at various concentrations. Following 16 hours of incubation, cells were treated with 1 μM FCCP/oligomycin (F/O) along with compounds at various doses for 2-3 hours. Appropriate controls were included on each plate to obtain a maximum signal from treatment with 10 μM F/O or, and a minimum signal from cells treated with no F/O with DMSO for each cell type tested (HeLa-MKYP WT or PINK1^KO). At the desired timepoint, media was removed and cells were frozen prior to lysis. Cells lysates were denatured by boiling, prior to analysis by a custom ELISA assay using commercially available antibodies (using anti-phospho-ubiquitin as a capturing antibody, and anti-total ubiquitin as a detection antibody). Purified pS65 ubiquitin was used to generate a standard curve and determine timing for ELISA reaction development."}, "PINK1/parkin pathway": {"tested_on": "PINK1/parkin pathway", "assay": "Parkin recruitment to mitochondria, live cell imaging", "type": "cell-based, human", "details": "PINK1wt vs PINK1ko cells, FIG. 18", "experimental": "When the PINK1/parkin pathway is activated by FCCP, PINK1 is stabilized on the mitochondrial membrane, and its activity leads to the recruitment of parkin to the mitochondria (Narendra et al., PLoS Biol 2010; Narendra et al., J. Cell Biol 2008; Vives-Bauza et al., PNAS 2009). The aim of this assay is to test how MTK compounds affect the speed of parkin recruitment to the mitochondria. Briefly, HeLa-MKYP cells were plated at 7,000 cells/well in 96-well plates along with compounds at various concentrations. Following 16 hours of incubation, cells were treated in phenol-free media with 1 μM FCCP/oligomycin (F/O) along with compounds at various doses for 2-3 hours. Immediately following addition of new media, the cell treatment plate was transferred to a CO2 and temperature-regulated chamber in a high-content imaging microscope [Molecular Devices], to acquire images from live cells at regular intervals during the treatment timecourse. Appropriate controls were included on each plate to obtain a maximum signal from treatment with 2 μM F/O, or a minimum signal from cells treated with no F/O with DMSO for each cell type tested (HeLa-MKYP WT or PINK1^KO). Images were analyzed using MetaExpress 6 software package, and automatically processed after setting thresholds to define overlap between the YFP-parkin signal and red mitochondrial signal based on controls. […]"}, "dOTC": {"tested_on": "dOTC", "assay": "Ornithine carbamoyltransferase (dOTC) assay", "type": "cell-based", "description": "The expression of a deletion mutant of dOTC yields Triton X-100 insoluble protein aggregates in the mitochondrial matrix. This misfolded protein expression is capable of recruiting PINK1/Parkin to mitochondria without depolarizing the inner mitochondrial membrane. Thus, without wishing to be bound by theory, it may represent a more physiological mechanism of PINK1 stabilization.\nHere, HeLa cells stably expressing YFP parkin, containing doxycycline inducible expression of dOTC, were obtained. The cells were seeded at 20000 cells/well plus doxycycline (1 μg/mL) plus MTK on a 96-well plate. On Day 3, the cells were fixed and permeabilized and bound with OTC antibody. DAPI and cell mask were added. There was no wash off of dox. The results were imaged at 40×, non-confocal. 85-600 cells were analyzed per well. Each condition had 1-3 wells."}, "[3]": {"tested_on": "phospho-serine 129 synuclein (pS129)", "assay": "Preformed α-syn amyloid fibril (PFF) primary neuron model", "type": "cell-based, mice", "experimental": "Briefly, primary hippocampal neurons were derived and cultured following standard protocols. At DIV-7, the cultures were treated with PFFs. At DIV-10, the cultures began treatment with a Mitokinin compound or vehicle controls, such treatment continuing for the duration of the experiment. The cultures were fixed and stained for alpha synuclein, TUJ1, and MAP2 at DIV-14, and analysis performed by unbiased imaging on an ImageXpress Confocal microscope and quantified by Molecular Devices' MetaXpress software."}, "[4]": {"assay": "In vivo pharmacokinetic properties (Table 7)"}, "[5]": {"tested_on": "Hela MKYP (Mito-Keima/YFP-Parkin) cells", "assay": "Inspection of round cells", "details": "Tables 6A-6D", "quoted_text": "Briefly, the Hela MKYP (Mito-Keima/YFP-Parkin) cells were seeded at 10K cells/well. EP/MTK compounds were added at seeding (cells were still in suspension). The cells were incubated with the EP/MTK compounds for 16 hours, then 1 μM FCCP/oligomycin was added for 6 hours. Prior to harvesting, cells were scored by eye under 20× magnification for the presence or absence of crystalline or aggregated compound, or round cells."}, "[6]": {"details": "three days of treatment with DOX and 50 μM"}},
  "note": "“Also recorded” adds a separate entry of the source.",
  "data": [
    {"compound": "FC(F)(F)c1cc2c(NC3CCCc4ccccc43)ncnc2[nH]1", "note": "(centres unmarked) [Compound 15]", "values": [
      {"measurement": "pS65 Ub signal", "setting": "PINK1 [1]", "result": "increases the pS65 Ub signal"},
      {"measurement": "pS65 Ub (PINK1 substrate phosphorylation)", "setting": "PINK1 [2]", "result": "significant increase in pS65 Ub in PINK1^wt cells but not in PINK1^ko cell lines"},
      {"measurement": "rate of Parkin recruitment", "setting": "PINK1/parkin pathway", "result": "increases the rate of Parkin recruitment in PINK1^wt but not PINK1^ko cells"},
      {"measurement": "dOTC proteins / delta OTC aggregates", "setting": "dOTC; induced by doxycycline, FIG. 16, FIG. 20, listed as EP-0035985", "result": "able to reduce the accumulated dOTC proteins; also recorded: reduces delta OTC aggregates from mitochondria"},
      {"measurement": "OTC signal", "setting": "dOTC; [6]", "result": "very effective at reducing OTC signal"},
      {"measurement": "cell counts", "setting": "dOTC; [6]", "result": "cell counts were lower"},
      {"measurement": "EC50", "setting": "[3]; FIG. 22A, 22B, read-out: EC50 of decrease of pS129 synuclein increase driven by PFF addition", "result": 981, "unit": "nM"},
      {"measurement": "pS129 synuclein in PINK1ko cell lines", "setting": "[3]; PINK1ko, FIG. 22C", "result": "does not decrease pS129 synuclein in PINK1^ko cell lines"},
      {"measurement": "AUC (obs)", "setting": "[4]; IV (1 mg/kg)", "result": 1.4, "unit": "µM·h"},
      {"measurement": "Cmax", "setting": "[4]; IV (1 mg/kg)", "result": 1450, "unit": "nM"},
      {"measurement": "Cmax", "setting": "[4]; PO (10 mg/kg)", "result": 1080, "unit": "nM"},
      {"measurement": "F %", "setting": "[4]; PO (10 mg/kg)", "result": 17.4, "unit": "%"},
      {"measurement": "AUC (obs)", "setting": "[4]; PO (50 mg/kg)", "result": 27.4, "unit": "µM·h"},
      {"measurement": "Cmax", "setting": "[4]; PO (50 mg/kg)", "result": 9800, "unit": "nM"},
      {"measurement": "F %", "setting": "[4]; PO (50 mg/kg)", "result": 37.9, "unit": "%"},
      {"measurement": "T1/2", "setting": "[4]; PO (50 mg/kg)", "result": 3.9, "unit": "h"},
      {"measurement": "bioavailability", "setting": "[4]; in vivo dosing, FIG. 23 and Table 7", "result": "good bioavailability"},
      {"measurement": "AUC(0-inf)", "setting": "[4]; mouse, in vivo, IV (1 mg/kg)", "result": 1.5, "unit": "µM·h"},
      {"measurement": "half-life", "setting": "[4]; mouse, in vivo, IV (1 mg/kg)", "result": 84, "unit": "min"},
      {"measurement": "AUC", "setting": "[4]; mouse, in vivo, PO (10 mg/kg)", "result": 2.4, "unit": "µM·h"},
      {"measurement": "AUC(0-inf)", "setting": "[4]; mouse, in vivo, PO (10 mg/kg)", "result": 2.6, "unit": "µM·h"},
      {"measurement": "half-life", "setting": "[4]; mouse, in vivo, PO (10 mg/kg)", "result": 120, "unit": "min"},
      {"measurement": "AUC(0-inf)", "setting": "[4]; mouse, in vivo, PO (50 mg/kg)", "result": 35.5, "unit": "µM·h"},
      {"measurement": "Inspection of round cells", "setting": "[5]; 1.6 μM", "result": 0},
      {"measurement": "Inspection of round cells", "setting": "[5]; 3.1 μM", "result": 0},
      {"measurement": "Inspection of round cells", "setting": "[5]; 6.3 μM", "result": 0},
      {"measurement": "Inspection of round cells", "setting": "[5]; 12.5 μM", "result": 0},
      {"measurement": "Inspection of round cells", "setting": "[5]; 25.0 μM", "result": 0},
      {"measurement": "Inspection of round cells", "setting": "[5]; 50.0 μM", "result": 0}
    ]}
  ]
}
